This is an account of results in ChEMBL document CHEMBL3108715, “Pan-histone demethylase inhibitors simultaneously targeting Jumonji C and lysine-specific demethylases display high anticancer activities” (J Med Chem, 2014).

For test [1], the target named is Lysine-specific demethylase 6B (Homo sapiens, UniProt O15054).
Description: Inhibition of recombinant JMJD3 (unknown origin) incubated for 15 mins prior to substrate addition by AlphaScreen method
The target in test [2] is T1, Lysine-specific demethylase 4C (Homo sapiens, UniProt Q9H3R0).
T1 sequence (Q9H3R0 whole entry): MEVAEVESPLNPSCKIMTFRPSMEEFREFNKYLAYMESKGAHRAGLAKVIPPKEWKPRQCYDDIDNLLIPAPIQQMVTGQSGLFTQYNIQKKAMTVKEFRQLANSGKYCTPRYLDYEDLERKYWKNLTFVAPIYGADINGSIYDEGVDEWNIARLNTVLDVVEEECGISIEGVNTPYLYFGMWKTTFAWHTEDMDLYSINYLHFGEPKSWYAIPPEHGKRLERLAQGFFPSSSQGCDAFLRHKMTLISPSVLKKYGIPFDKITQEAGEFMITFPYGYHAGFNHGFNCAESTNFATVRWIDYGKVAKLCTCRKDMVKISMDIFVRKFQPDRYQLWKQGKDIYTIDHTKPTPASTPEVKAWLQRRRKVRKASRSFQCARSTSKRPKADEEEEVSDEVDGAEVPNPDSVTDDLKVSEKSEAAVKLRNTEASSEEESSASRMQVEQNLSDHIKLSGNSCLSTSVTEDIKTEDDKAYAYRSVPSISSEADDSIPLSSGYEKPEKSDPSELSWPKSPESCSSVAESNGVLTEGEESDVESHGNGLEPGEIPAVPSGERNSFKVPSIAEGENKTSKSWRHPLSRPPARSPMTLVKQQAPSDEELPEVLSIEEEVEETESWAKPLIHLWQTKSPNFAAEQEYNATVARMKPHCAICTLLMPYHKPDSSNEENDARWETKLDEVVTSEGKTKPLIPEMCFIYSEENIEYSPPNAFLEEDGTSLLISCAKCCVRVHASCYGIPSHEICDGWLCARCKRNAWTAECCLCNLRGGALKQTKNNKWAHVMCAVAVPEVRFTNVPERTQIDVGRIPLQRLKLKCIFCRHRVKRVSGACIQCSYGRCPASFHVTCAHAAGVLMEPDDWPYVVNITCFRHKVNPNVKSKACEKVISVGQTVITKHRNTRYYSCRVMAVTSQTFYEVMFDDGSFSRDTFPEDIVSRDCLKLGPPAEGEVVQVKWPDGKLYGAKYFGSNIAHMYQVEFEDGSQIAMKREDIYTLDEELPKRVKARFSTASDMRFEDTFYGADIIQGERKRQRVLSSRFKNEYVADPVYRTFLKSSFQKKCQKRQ
Description: Inhibition of recombinant JMJD2C (unknown origin) incubated for 15 mins prior to substrate addition by AlphaScreen method

The test system of test [3] is LNCaP. The test is described as follows: Inhibition of LSD1/JmjC in human LNCAP cells assessed as increase in H3K9me3 level at 50 uM by Western blotting analysis. It is filed as cell-based. In general terms: Immunoblotting shows a protein as a band on a membrane.
Test [4] has as its system HCT-116. Briefly: Inhibition of LSD1/JmjC in human HCT116 cells assessed as increase in H3K4me2/3 level at 50 uM by Western blotting analysis. It is filed as cell-based.
In test [5] the test system is HCT-116. The test is described as follows: Inhibition of LSD1/JmjC in human HCT116 cells assessed as increase in H3K9me3 level at 50 uM by Western blotting analysis. It is filed as cell-based.
The target in the next test is Egl nine homolog 1 (Homo sapiens, UniProt Q9GZT9). Briefly: Inhibition of PHD2 (unknown origin) by mass spectrometry.
Test [6] has as its system HCT-116. The test is described as follows: Cell cycle arrest in human HCT116 cells assessed as accumulation at pre-G1 phase at 50 uM after 30 hrs by propidium iodide staining-based FACS analysis. The format is functional. On the technique in general: A flow cytometer gives signals particle by particle.
Test [7] concerns LNCaP. The test is described as follows: Cytotoxicity against human LNCAP cells at 50 uM after 72 hrs. It is filed as functional, cell-based.
In test [8] the test system is LNCaP. The test is described as follows: Cell cycle arrest in human LNCAP cells assessed as accumulation at pre-G1 phase at 50 uM after 30 hrs by propidium iodide staining-based FACS analysis. It is filed as functional.
Test [9] concerns LNCaP. The test is described as follows: Inhibition of LSD1/JmjC in human LNCAP cells assessed as increase in H3K4me2/3 level at 50 uM by Western blotting analysis. It is filed as cell-based.
Test [10] deals with HCT-116. The test is described as follows: Induction of apoptosis in human HCT116 cells at 10 to 100 uM after 48 hrs by propidium iodide staining-based FACS analysis. It is filed as functional, cell-based.
The test system of test [11] is LNCaP. The test is described as follows: Cell cycle arrest in human LNCAP cells assessed as accumulation at G1 phase at 50 uM after 30 hrs by propidium iodide staining-based FACS analysis. The format is functional.
Test [12] has as its system LNCaP. Briefly: Antimigratory activity against human LNCAP cells at 50 uM after 72 hrs. It is filed as functional, cell-based.
For test [13], the target named is T2, Amine oxidase [flavin-containing] A (Homo sapiens, UniProt P21397).
T2 sequence (P21397 whole entry): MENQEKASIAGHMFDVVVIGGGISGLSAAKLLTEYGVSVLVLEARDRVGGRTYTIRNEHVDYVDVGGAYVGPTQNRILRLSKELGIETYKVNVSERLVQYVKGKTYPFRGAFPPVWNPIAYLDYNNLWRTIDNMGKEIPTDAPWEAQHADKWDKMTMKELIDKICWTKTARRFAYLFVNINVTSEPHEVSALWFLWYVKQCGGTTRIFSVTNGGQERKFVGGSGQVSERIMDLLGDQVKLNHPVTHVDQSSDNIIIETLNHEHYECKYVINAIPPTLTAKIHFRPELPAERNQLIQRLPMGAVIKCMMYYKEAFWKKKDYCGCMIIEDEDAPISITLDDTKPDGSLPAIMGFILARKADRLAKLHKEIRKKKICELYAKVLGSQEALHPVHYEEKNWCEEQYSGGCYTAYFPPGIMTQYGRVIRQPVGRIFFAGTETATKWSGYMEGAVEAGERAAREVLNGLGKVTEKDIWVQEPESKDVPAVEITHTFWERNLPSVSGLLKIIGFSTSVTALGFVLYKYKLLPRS
Description: Inhibition of human recombinant MAO-A expressed in Pichia pastoris using kynuramine as substrate after 5 mins

Test [14] deals with HCT-116. The test is described as follows: Antimigratory activity against human HCT116 cells at 50 uM after 72 hrs. It is filed as functional, cell-based.
Test [15] has as its target T3, Amine oxidase [flavin-containing] B (Homo sapiens, UniProt P27338).
T3 sequence (P27338 whole entry): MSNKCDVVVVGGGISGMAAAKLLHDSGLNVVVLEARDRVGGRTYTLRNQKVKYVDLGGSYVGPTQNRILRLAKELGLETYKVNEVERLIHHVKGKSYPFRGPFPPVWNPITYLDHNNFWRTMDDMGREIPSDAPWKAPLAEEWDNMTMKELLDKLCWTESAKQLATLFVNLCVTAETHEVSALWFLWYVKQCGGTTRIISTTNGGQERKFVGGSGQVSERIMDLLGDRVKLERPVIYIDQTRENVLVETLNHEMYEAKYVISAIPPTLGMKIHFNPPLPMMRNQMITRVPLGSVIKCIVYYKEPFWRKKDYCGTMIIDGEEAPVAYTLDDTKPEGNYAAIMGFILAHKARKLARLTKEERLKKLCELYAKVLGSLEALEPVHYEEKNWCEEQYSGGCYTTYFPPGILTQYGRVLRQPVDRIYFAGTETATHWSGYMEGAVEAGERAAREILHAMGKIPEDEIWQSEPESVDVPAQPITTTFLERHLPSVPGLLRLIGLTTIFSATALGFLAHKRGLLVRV
Description: Inhibition of human recombinant MAO-B expressed in Pichia pastoris using benzylamine as substrate after 5 mins

Test [16] concerns LNCaP. The test is described as follows: Induction of apoptosis in human LNCAP cells at 10 to 100 uM after 48 hrs by propidium iodide staining-based FACS analysis. The format is functional, cell-based.

Calls of active or inactive are those of the source. The calls are words filed in the database; no cut-off is given here.

Lysine-specific demethylase 6B, sequence (O15054 whole entry): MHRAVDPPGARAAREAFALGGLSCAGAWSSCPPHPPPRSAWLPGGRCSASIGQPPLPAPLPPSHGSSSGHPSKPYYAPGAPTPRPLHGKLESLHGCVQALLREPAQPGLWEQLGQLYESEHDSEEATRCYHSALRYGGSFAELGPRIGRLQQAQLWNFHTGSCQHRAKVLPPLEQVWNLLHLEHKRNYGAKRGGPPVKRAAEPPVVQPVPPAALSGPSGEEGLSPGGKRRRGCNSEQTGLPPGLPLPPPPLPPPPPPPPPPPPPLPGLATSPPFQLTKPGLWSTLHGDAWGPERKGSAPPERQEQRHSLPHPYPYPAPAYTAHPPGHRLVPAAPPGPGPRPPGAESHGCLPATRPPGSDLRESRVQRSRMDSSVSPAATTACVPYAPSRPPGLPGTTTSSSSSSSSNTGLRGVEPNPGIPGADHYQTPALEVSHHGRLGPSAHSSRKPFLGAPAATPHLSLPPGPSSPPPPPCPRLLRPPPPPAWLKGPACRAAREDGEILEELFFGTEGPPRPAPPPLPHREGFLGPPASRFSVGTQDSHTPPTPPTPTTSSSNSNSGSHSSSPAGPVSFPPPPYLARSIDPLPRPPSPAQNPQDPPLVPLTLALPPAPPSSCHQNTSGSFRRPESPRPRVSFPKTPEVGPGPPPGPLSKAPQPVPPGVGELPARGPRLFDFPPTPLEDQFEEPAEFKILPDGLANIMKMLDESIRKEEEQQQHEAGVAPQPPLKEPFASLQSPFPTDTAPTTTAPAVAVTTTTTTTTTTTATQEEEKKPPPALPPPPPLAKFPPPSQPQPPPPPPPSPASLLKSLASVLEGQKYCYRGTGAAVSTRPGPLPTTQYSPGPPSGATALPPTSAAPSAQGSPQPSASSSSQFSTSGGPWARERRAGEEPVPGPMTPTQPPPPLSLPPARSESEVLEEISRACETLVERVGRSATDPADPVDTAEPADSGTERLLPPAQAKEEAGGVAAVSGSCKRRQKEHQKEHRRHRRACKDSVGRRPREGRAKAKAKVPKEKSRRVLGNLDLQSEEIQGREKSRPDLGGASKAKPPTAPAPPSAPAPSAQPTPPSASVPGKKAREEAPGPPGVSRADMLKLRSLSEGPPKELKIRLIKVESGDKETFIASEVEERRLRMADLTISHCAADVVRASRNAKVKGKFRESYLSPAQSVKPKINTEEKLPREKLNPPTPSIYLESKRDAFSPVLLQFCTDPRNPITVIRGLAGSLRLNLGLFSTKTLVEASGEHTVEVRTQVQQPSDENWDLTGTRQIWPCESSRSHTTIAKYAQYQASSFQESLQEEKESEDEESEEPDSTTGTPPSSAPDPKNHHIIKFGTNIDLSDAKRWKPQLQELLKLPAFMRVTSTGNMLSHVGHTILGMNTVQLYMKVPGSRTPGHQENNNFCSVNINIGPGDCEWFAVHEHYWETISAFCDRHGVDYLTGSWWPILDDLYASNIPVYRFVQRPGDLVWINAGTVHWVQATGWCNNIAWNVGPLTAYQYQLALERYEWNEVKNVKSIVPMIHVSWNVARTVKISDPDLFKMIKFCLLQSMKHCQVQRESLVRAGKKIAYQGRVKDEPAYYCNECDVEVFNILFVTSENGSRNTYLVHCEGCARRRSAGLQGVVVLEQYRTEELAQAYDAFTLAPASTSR
Egl nine homolog 1, sequence (Q9GZT9 whole entry): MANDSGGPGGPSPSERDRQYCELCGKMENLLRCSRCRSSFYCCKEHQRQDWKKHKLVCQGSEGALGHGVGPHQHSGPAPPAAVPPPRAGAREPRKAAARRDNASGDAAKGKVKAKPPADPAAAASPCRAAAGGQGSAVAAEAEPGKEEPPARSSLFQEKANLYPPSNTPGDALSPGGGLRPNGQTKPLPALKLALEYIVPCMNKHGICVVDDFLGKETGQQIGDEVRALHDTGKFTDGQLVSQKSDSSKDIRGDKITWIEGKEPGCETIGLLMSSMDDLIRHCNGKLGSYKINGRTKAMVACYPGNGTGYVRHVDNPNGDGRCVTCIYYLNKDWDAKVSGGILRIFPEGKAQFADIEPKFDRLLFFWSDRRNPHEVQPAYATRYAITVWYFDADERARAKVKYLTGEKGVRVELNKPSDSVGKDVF

Turning to `COC(=O)c1ccnc(-c2cc(C(=O)O)ccn2)c1`, the results for the IC50 in [1] and in test [2] were 11.2 µM and 3.5 µM, respectively.
Turning to `Cl.N[C@@H]1C[C@H]1c1ccc(NC(=O)c2ccc(O)c3ncccc23)cc1` (relative stereo), the IC50 (usually the midpoint of a concentration-inhibition curve) in test [1] was 27 µM; against Egl nine homolog 1 it was 8.5 µM; in test [2] it was 1.2 µM; in test [13] it was 8.9 µM; in test [15], 81 µM. Also, the inhibition result in the test with LNCaP [3], with HCT-116 [4], in the test with HCT-116 [5] and in the test with LNCaP [9] was “Active” each time. Moreover, the result in the test on HCT-116 [6], in the test on LNCaP [7], in the test on LNCaP [8], in the test on HCT-116 [10] and in the test on LNCaP [16] was Active. The Activity entry in the test with LNCaP [11] is “>=90%”. For the same compound, the result with LNCaP [12] and in the test with HCT-116 [14] was inactive.
Regarding `N[C@H]1C[C@@H]1c1ccc(NC(=O)CCCNC(=O)c2ccc(O)c3ncccc23)cc1` (relative stereo), the IC50 in test [1] is 18 µM; in [2], 4.5 µM.
As for `N[C@H]1C[C@@H]1c1ccc(NC(=O)CCCCNC(=O)c2ccc(O)c3ncccc23)cc1` (relative stereo), the results for the IC50 in test [1] and in [2] were 14 µM and 3.1 µM, respectively.
Consider `Cl.N[C@H]1C[C@@H]1c1ccc(NC(=O)CCCCCNC(=O)c2ccc(O)c3ncccc23)cc1` (relative stereo), for which the IC50 was 16 µM in test [1] and 2.5 µM in [2]. The outcome with LNCaP [8] was Active. Also, the Activity result in the test with LNCaP [11] is “>=90%”.
With `N[C@@H]1C[C@H]1c1ccc(NC(=O)c2ccnc(-c3cc(C(=O)O)ccn3)c2)cc1` (relative stereo), the IC50 was 2.7 µM in [1]; 278 µM on Egl nine homolog 1; 0.07 µM in test [2]; 35.4 µM in test [13]; 47 µM in [15].
For `COC(=O)c1ccnc(-c2cc(C(=O)Nc3ccc([C@@H]4C[C@H]4N)cc3)ccn2)c1.Cl` (relative stereo), the IC50 was 76 µM in [1], 2.7 µM in test [2], less than 1 µM in test [13] and 43.3 µM in [15]. Moreover, the inhibition entry in the test with LNCaP [3], with HCT-116 [4], in the test on HCT-116 [5] and with LNCaP [9] was “Active” each time. Further, the result in the test on HCT-116 [6], in the test on LNCaP [7], with LNCaP [8], in the test on HCT-116 [10], with HCT-116 [14] and in the test on LNCaP [16] was Active. Moreover, in the test with LNCaP [11], the Activity entry is recorded as “>=90%”. In the test on LNCaP [12], the outcome was inactive.
